Data: patent publication US6566081B1, “Methods of identifying a compound which modulates the non-transcriptional non-map-kinase induced effects of steroid hormones” (The Brigham and Women's Hospital, Inc., priority 1999, dated 2003)
Values joined by “and” are separate entries in the source; they are usually repeats but may differ in a detail not shown here. Equal values may be shown once. “Also recorded” adds a separate entry of the source.

Tests used:
eNOS = eNOS activity assay (conversion of [3H]-arginine to [3H]-citrulline) in treated human endothelial cells; type: cell-based; conditions: for time after stimulation at which PI3-kinase/eNOS activity is stimulated / effect on E2-stimulated eNOS activity, later phase (≥15 min) or 30 min: E2 10 nM; for time after stimulation at which PI3-kinase/eNOS activity is stimulated / stimulation of eNOS activity by the substance alone: insulin 100 nM; for stimulation of eNOS activity by the substance alone: E2/αE2 10 nM; for effect on E2-stimulated eNOS activity, later phase (≥15 min) or 30 min: wortmannin 30 nM, ICI 10 μM, genistein 50 μM, PD98059 5 μM, actinomycin D 2 h pretreatment; for effect on basal eNOS activity, substance alone: no E2
Description: Fetal bovine serum was deprived of estrogen by charcoal-stripping. Once grown to confluence the cells were replated on 1.5% gelatin-coated flasks at 20000 cells/cm^2. […] Cell number was assessed by direct cell counting of adherent cells, after trypsin detachment, in a Neubauer hemocytometer (VWR Scientifics). The percentage of cells excluding Trypan Blue after staining with the compound was taken as a measure of cell viability.
Endothelial cells were grown to confluence on 55 cm^2 culture dishes, treated according to the indicated conditions, and harvested in ice-cold PBS containing 1 mM EDTA. The cell lysates were pelleted in a microfuge (2 minutes, 13000 rpm, 4° C.) and subsequently homogenized in a buffer containing 25 mM Tris-HCl, pH 7.4, 1 mM EDTA, 1 mM EGTA. eNOS activity was determined by measuring the conversion of [^3H]-arginine to [^3H]-citrulline. Rat cerebellum extracts, containing elevated amounts of neuronal NOS, were used as positive controls, while endothelial cell extracts incubated in the presence of the competitive eNOS inhibitor L-NAME (1 mM) served as negative controls.
Human and bovine aortic endothelial cells were harvested enzymatically with Type IA collagenase (1 mg/mL).

NO release = experiment: Nitrite assay (NO accumulation from endothelial cells); type: cell-based, human; conditions: for stimulation of NO release / production (nitrite accumulation): 30 min, E2/αE2 10 nM, insulin 100 nM, acetylcholine; for effect on E2-induced NO release / production: E2 10 nM 30 min, ICI 10 μM, wortmannin 30 nM
Description: NO accumulation from serum-starved endothelial cells was determined by a modified nitrite assay using 2, 3 diaminonaphtalene as described previously.^33 Fluorescence of 1-(H)-naphtotriazole was measured with excitation and emission wavelengths of 365 and 450 nm, respectively. Standard curves were constructed with known amounts of sodium nitrite. Nonspecific fluorescence was determined in the presence of LNMA (3 mM).

Akt/PKB = experiment: Akt kinase assay (immunoprecipitated Akt, GSK-3 peptide); type: cell-based, human; conditions: for stimulation of Akt kinase activity (words): E2/αE2 10 nM, insulin 100 nM
Description: Immunoprecipitated Akt kinase activity was assayed on endothelial cell lysates by using the Aktl/PKBα immunoprecipitation kinase assay kit (Upstate Biotechnology, Lake Placid, N.Y.). Endothelial cells were starved in phenol red-free199 medium with 0.4% estrogen-deprived FBS, treated, washed, and then harvested in ice-cold Buffer A (50 mM Tris-HCl, pH 7.5, 1 mM EDTA, 1 mM EGTA, […] Na3VO4, 0.1% (v/v) 2-mercaptoethanol, 1% Triton X-100, 50 mM sodium fluoride, 5 mM sodium pyrophosphate, 10 mM sodium glycerophosphate, 0.1 mM PMSF, 1 μg/mL of aprotinin, pepstatin, leupeptin and 1 μM microcystin). The cleared cell lysates were incubated for 1 hour at 4° C. with 4 μg/tube of anit-Akt1/PKBα PH domain immunoaffinity purified sheep IgG, after which 50 μL of a 1:1 (v/v) protein G-agarose slurry was added for an additional hour of incubation at 4° C. After centrifugation, the immunoprecipitates were washed three times with Buffer A containing 0.5 M NaCl, then two times with Buffer B (50 mM Tris-HCl, pH 7.5, 0.03% (w/v) Brij-35, 0.1 mM EGTA, 0.1% (v/v) 2-mercaptoethanol), and finally twice with 1×Assay Buffer (20 mM MOPS, pH 7.2, 25 mM β-glycerol phosphate, 5 mM EGTA, 1 mM Na3VO4, 1 mM DTT).
The immunoprecipitates were resuspended in 10 μL of ice-cold 1×Assay Buffer, and were sequentially added: 10 μL of 40 μM PKA inhibitor peptide ([…]-NH2—corresponding to residues 7-23 of human PKA inhibitor), 10 μL of Akt/PKB specific substrate peptide (100 μM) (RPRAATF—corresponding to the phosphorylation site of glycogen synthase kinase-3, specifically targeted by Akt/PKB, but not by other protein kinases such as Rsk-2 and p70 S6 kinase), and 10 μL of [γ-^32P]ATP stock solution (1×Assay Buffer with 500 μM ATP, 75 mM MgCl2, containing 1 μCi/μL [γ^32-P]ATP, 3000 Ci/mmol). The reaction was incubated at 37° C. for 30 minutes, after which 40 μL of the supernatant was mixed with 20 μL of 40% TCA and incubated for 5 minutes at room temperature. 40 μL of each final fraction were spotted onto the center of a 2 cm×2 cm P81 phosphocellulose paper. The assay squares were washed three times with 0.75% phosphoric acid for five minutes at room temperature, then once with acetone. The squares were then transferred to vials containing a liquid scintillation cocktail and read in a scintillation counter. Blank reaction for the detection of the unspecific background were performed by substituting the cell lysate with Buffer A at the beginning of the procedure, and aspecific endogenous phosphorylation of proteins in the sample extract was estimated by substituting in some samples 1×Assay Buffer for the Akt/PKB specific substrate peptide.

17β-estradiol [E2]
lowest concentration increasing eNOS activity (eNOS; 30 min treatment of HSVEC): 10 pM | EC50 (eNOS; E2 10 pM-1 μM, 30 min, human endothelial cells, read-out: EC50 value for increase in eNOS activity): ~0.1 nM and 0.1 nM | time after stimulation at which PI3-kinase/eNOS activity is stimulated (eNOS): > 15 min | stimulation of eNOS activity by the substance alone (eNOS; 30 min): increases eNOS activity; also recorded: biphasic increase in eNOS activity; also recorded: marked increase | time of maximum effect on PI3-kinase and eNOS activity (eNOS; after stimulation): 15 to 20 min | stimulation of NO release / production (nitrite accumulation) (NO release): increases NO release | stimulation of Akt kinase activity (words) (Akt/PKB; 20 min): activated; also recorded: stimulated | increase in Akt kinase activity after 10 min (Akt/PKB; E2 stimulation, 10 min): 1.5 fold | increase in Akt kinase activity after 20 min (Akt/PKB; E2 stimulation, 20 min): 2.3 fold

C[C@]12CC[C@@H]3c4ccc(O)cc4C[C@@H](CCCCCCCCC[S+]([O-])CCCC(F)(F)C(F)(F)F)[C@H]3[C@@H]1CC[C@@H]2O (stereo partly drawn) [ICI 187,780]
effect on E2-stimulated eNOS activity, later phase (≥15 min) or 30 min (eNOS): complete blockade; also recorded: completely blocked | effect on E2-stimulated eNOS activity, later phase (≥15 min) or 30 min (eNOS; listed as ICI 182,780): completely blocked | effect on basal eNOS activity, substance alone (eNOS): neither wortmannin nor ICI 187,780 alone affected basal eNOS activity | effect on basal eNOS activity, substance alone (eNOS; listed as ICI 182,780): did not produce any effect | effect on E2-induced NO release / production (NO release): completely blocked | effect on E2-induced NO release / production (NO release; listed as ICI 182,780): prevent | effect on acetylcholine-induced NO accumulation (NO release; acetylcholine 30 min): not influenced; also recorded: not affected | effect on E2-stimulated Akt kinase activity (Akt/PKB; ICI 10 μM, wortmannin 30 nM): nearly completely abolished; also recorded: almost completely inhibited

insulin: known activator of the PI3-kinase/Akt pathway
time after stimulation at which PI3-kinase/eNOS activity is stimulated (eNOS): ≤ 2 min | stimulation of eNOS activity by the substance alone (eNOS; 30 min): marked increase; also recorded: able to stimulate | stimulation of eNOS activity by the substance alone (eNOS; 30 min, listed as Insulin): activates eNOS activity | stimulation of NO release / production (nitrite accumulation) (NO release): able to stimulate | stimulation of NO release / production (nitrite accumulation) (NO release; listed as Insulin): activates nitrite release | stimulation of Akt kinase activity (words) (Akt/PKB; 20 min): substantial increase | stimulation of Akt kinase activity (words) (Akt/PKB; 20 min, listed as Insulin): marked activation
